US7119113B2, “Oxazoles as mGluR1 enhancers” (Hoffmann-La Roche Inc., priority 2002, dated 2006)

Key:
rat mGlu 1a receptor = target: T1, rat mGlu 1a receptor (Rattus norvegicus, UniProt P23385); assay: [Ca2+]i measurement (FLIPR) on mGlu 1a transfected EBNA cells (headed "Binding Assay"); format: cell-based; conditions: rat mGlu 1a transiently transfected EBNA cells, Fluo-3 AM, activation (agonist) curves
T1 construct: expressed in transfected cells; host or cells: EBNA cells (transient transfection)
Description: The compounds of the present invention are group I mGlu receptor agonists. The compounds show activities, as measured in the below binding assay, of 0.2 μM or less.
cDNA encoding rat mGlu 1a receptor obtained from Prof. S. Nakanishi (Kyoto, Japan) was transiently transfected into EBNA cells using a procedure described by Schlaeger et al, New Dev. New Appl. Anim. Cell Techn., Proc. ESACT Meet., 15, (1998), 105–112 and 117–120. [Ca^2+]i measurements were performed on mGlu 1a transfected EBNA cells after incubation of the cells with Fluo-3 AM (0.5 μM final concentration) for 1 hour at 37° C. followed by 4 washes with assay buffer (DMEM supplemented with Hank's salt and 20 mM HEPES. [Ca^2+]i measurements were done using a fluorometric imaging plate reader (FLIPR, Molecular Devices Corporation, La Jolla, Calif., USA). When compounds were evaluated as antagonists they were tested against 10 μM glutamate as agonist.
The activation (agonists) curves were fitted with a four parameter logistic equation giving EC50, and Hill coefficient using the iterative non linear curve fitting software Origin (Microcal Software Inc., Northampton, Mass., USA).
In the table below are shown specific EC50 values of compounds of formula I: […]

[1] = Microsome incubation, rat liver microsomes (metabolic stability); format: in vitro ADME; conditions: for MAB (rat): maximal achievable bioavailability = 1−E (hepatic extraction ratio), extrapolated from rat microsomal clearance; for microsomal CLint at 10 μM: pH 7.4, rat liver microsomes 1.0 mg prot/mL, test compound 10 μM, 37° C., NADPH regenerating system, calculated from in vitro half-life, read-out: Intrinsic clearance (rat)
Description: (§1) The compounds of formula I of the present invention are further characterized by high metabolic stability. This parameter is a prerequisite for good bioavailability, which is necessary to obtain medicaments with acceptable in-vivo activity. The metabolic stability has been tested by the following method:
(§2) Incubation mixtures consisted of liver microsomes (rat 1.0 mg prot/mL or human 2.0 mg prot/mL), test compound 10 μM, MgCl2 (3.3 mM), and an NADPH regenerating system consisting of glucose-6-phosphate dehydrogenase, NADPH and glucose-6-phosphate (equivalent to 1 mM NADPH) in a total volume of 1.0 mL of potassium phosphate buffer 100 mM pH 7.4. Reactions were initiated by addition of the NADPH regenerating system at 37° C. At the time of 1, 5, 9, 13, 17, 21, 25, and 29 min a 5 μL aliquot was directly analysed on a HPLC-MS/MS system consisting of a HP 1100 quaternary pump with degasser and a PE-Sciex API-2000 MS/MS spectrometer. The analytical column was a Waters Symmetry Shield RP8 (2.1*50 mm with a […] particle size). A polarity non linear gradient from phase A (MeOH/Ac. Form.1% 20/80) to phase B (MeOH) was applied for a total run time of 2 minutes at a flow rate of 0.25 mL/min. The PE-Sciex API-2000 MS/MS spectrometer was used for detection of the parent compound. In vivo metabolic clearance was predicted according to published procedures [Houston, Biochem. Pharmacol. 47:1469–1479 (1994)]. In brief, the intrinsic clearance (Clearance, see table below) is calculated from the measured in vitro half-life taking into account incubation volume and microsomal protein used for the in vitro incubation. The intrinsic clearance is expressed in terms of μl/min/mg microsomal protein. For in vivo extrapolations, the hepatic extraction ratio (E) was calculated. Here it is reported the % MAB value which is equal to 1−E. The MAB (maximal achievable bioavailability) values express the maximal bioavailability that one can achieve with the given clearance values.

[2] = Microsome incubation, human liver microsomes (metabolic stability); format: in vitro ADME; conditions: for MAB (human): maximal achievable bioavailability = 1−E (hepatic extraction ratio), extrapolated from human microsomal clearance; for microsomal CLint at 10 μM: pH 7.4, human liver microsomes 2.0 mg prot/mL, test compound 10 μM, 37° C., NADPH regenerating system, calculated from in vitro half-life, read-out: Intrinsic clearance (human)
Description: as §1, §2

T1 sequence (P23385 19-1199): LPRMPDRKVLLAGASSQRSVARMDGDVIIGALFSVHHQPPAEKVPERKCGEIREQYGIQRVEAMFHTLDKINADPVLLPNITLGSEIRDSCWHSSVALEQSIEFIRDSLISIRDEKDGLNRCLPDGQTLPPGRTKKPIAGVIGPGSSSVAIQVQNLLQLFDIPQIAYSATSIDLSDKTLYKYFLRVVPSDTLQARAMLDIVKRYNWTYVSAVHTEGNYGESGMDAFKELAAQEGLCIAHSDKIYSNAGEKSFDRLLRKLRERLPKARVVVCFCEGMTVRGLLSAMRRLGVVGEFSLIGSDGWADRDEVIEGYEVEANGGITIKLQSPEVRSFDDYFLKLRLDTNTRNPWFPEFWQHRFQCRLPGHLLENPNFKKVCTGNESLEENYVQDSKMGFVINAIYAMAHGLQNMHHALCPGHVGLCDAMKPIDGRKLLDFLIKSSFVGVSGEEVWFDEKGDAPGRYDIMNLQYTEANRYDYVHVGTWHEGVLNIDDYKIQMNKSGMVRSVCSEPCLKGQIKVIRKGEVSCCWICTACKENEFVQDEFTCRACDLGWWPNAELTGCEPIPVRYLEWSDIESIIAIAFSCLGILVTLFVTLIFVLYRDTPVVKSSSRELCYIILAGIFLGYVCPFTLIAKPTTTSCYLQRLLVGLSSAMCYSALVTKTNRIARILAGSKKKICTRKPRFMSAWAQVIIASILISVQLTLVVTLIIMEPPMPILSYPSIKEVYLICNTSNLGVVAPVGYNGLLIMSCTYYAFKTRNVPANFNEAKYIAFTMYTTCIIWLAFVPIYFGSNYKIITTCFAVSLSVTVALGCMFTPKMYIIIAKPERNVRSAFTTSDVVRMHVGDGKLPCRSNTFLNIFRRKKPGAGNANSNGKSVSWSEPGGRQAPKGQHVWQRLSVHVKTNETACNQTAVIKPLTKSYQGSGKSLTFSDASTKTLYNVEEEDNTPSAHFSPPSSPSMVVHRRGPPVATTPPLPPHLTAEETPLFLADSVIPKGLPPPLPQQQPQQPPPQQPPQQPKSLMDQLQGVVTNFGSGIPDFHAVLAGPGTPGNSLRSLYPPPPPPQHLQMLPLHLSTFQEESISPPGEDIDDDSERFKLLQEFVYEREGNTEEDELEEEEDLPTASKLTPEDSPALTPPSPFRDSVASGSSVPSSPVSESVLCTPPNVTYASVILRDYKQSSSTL

Row | EC50 (rat mGlu 1a receptor) | MAB (rat) [1] | microsomal CLint at 10 μM [1] | MAB (human) [2] | microsomal CLint at 10 μM [2] | melting point | Structure (SMILES)
1 | 55 nM | 32% | 61.4 µL/min/mg | 61% | 9.9 µL/min/mg | 241 °C | O=C(Nc1nc(C(F)(F)F)co1)C1c2ccccc2Oc2ccc(F)cc21 (racemic) [Example 3, (RS)-2-Fluoro-9H-xanthene-9-carboxylic Acid (4-trifluoromethyl-oxazol-2-yl)-amide]
2 | 20 nM | 43% | 40.2 µL/min/mg | 45% | 18.8 µL/min/mg | 217 °C | O=C(Nc1ncc(C(F)(F)F)o1)C1c2ccccc2Oc2ccc(F)cc21 (racemic) [Example 4, (RS)-2-Fluoro-9H-xanthene-9-carboxylic Acid (5-trifluoromethyl-oxazol-2-yl)-amide]
3 | 40 nM | 46% | 34.3 µL/min/mg | 78% | 4.3 µL/min/mg | 221 °C | O=C(Nc1nc(C(F)(F)F)co1)C1c2ccccc2Oc2cc(F)ccc21 (racemic) [Example 5, (RS)-3-Fluoro-9H-xanthene-9-carboxylic Acid (4-trifluoromethyl-oxazol-2-yl)-amide]
4 | – | 52% | 27.8 µL/min/mg | 63% | 9.2 µL/min/mg | 250 °C | O=C(Nc1ncc(C(F)(F)F)o1)C1c2ccccc2Oc2cc(F)ccc21 (racemic) [Example 6, (RS)-3-Fluoro-9H-xanthene-9-carboxylic Acid (5-trifluoromethyl-oxazol-2-yl)-amide]
5 | 16 nM | 48% | 32.8 µL/min/mg | 67% | 7.9 µL/min/mg | 233 °C | O=C(Nc1nc(C(F)(F)F)co1)C1c2ccccc2Oc2c(F)cccc21 (racemic) [Example 7, (RS)-4-Fluoro-9H-xanthene-9-carboxylic Acid (4-trifluoromethyl-oxazol-2-yl)-amide]
6 | 21 nM | 49% | 31.8 µL/min/mg | 45% | 19.2 µL/min/mg | 228 °C | O=C(Nc1ncc(C(F)(F)F)o1)C1c2ccccc2Oc2c(F)cccc21 (racemic) [Example 8, (RS)-4-Fluoro-9H-xanthene-9-carboxylic Acid (5-trifluoromethyl-oxazol-2-yl)-amide]
7 | 15 nM | – | – | – | – | 235 °C | O=C(Nc1nc(C(F)(F)F)co1)C1c2ccccc2Oc2ccc(Cl)cc21 (racemic) [Example 13, (RS)-2-Chloro-9H-xanthene-9-carboxylic Acid (4-trifluoromethyl-oxazol-2-yl)-amide]
8 | 93 nM | – | – | – | – | 212 °C | O=C(Nc1nc(C(F)(F)F)co1)C1c2ccccc2Oc2c(Cl)cccc21 (racemic) [Example 14, (RS)-4-Chloro-9H-xanthene-9-carboxylic Acid (4-trifluoromethyl-oxazol-2-yl)-amide]
9 | 56 nM | 25% | 108 µL/min/mg | 68% | 8 µL/min/mg | – | O=C(Nc1nc(C(F)(F)F)co1)C1c2ccccc2Oc2ccccc21 [Example 1, 9H-Xanthene-9-carboxylic acid (4-trifluoromethyl-oxazol-2-yl)-amide]
10 | 38 nM | 37% | 50 µL/min/mg | 68% | 14 µL/min/mg | 218 °C | O=C(Nc1ncc(C(F)(F)F)o1)C1c2ccccc2Oc2ccccc21 [Example 2, 9H-Xanthene-9-carboxylic Acid (5-trifluoromethyl-oxazol-2-yl)-amide]
11 | 44 nM | 77% | 8.9 µL/min/mg | 85% | 2.7 µL/min/mg | 259 °C | O=C(Nc1nc(C(F)(F)F)co1)C1c2cc(F)ccc2Oc2ccc(F)cc21 [Example 9, 2,7-Difluoro-9H-xanthene-9-carboxylic Acid (4-trifluoromethyl-oxazol-2-yl)-amide]
12 | 124 nM | 54% | 26.1 µL/min/mg | 73% | 5.6 µL/min/mg | 232 °C | O=C(Nc1ncc(C(F)(F)F)o1)C1c2cc(F)ccc2Oc2ccc(F)cc21 [Example 10, 2,7-Difluoro-9H-xanthene-9-carboxylic Acid (5-trifluoromethyl-oxazol-2-yl)-amide]
13 | 3 nM | 63% | 17.6 µL/min/mg | 59% | 11.1 µL/min/mg | 265 °C | O=C(Nc1nc(C(F)(F)F)co1)C1c2ccc(F)cc2Oc2cc(F)ccc21 [Example 11, 3,6-Difluoro-9H-xanthene-9-carboxylic Acid (4-trifluoromethyl-oxazol-2-yl)-amide]
14 | 25 nM | 72% | 11.6 µL/min/mg | 63% | 9.1 µL/min/mg | 249 °C | O=C(Nc1ncc(C(F)(F)F)o1)C1c2ccc(F)cc2Oc2cc(F)ccc21 [Example 12, 3,6-Difluoro-9H-xanthene-9-carboxylic Acid (5-trifluoromethyl-oxazol-2-yl)-amide]
